US9309242B2, “Substituted pyrido[2,3-b]pyrazines as FGFR kinase inhibitors” (priority 2011, dated 2016)

Experiments:
FGFR1 (h) = FGFR1 (h) (Homo sapiens, UniProt P11362); experiment: FGFR1 (enzymatic assay), TR-FRET; format: biochemical; details: read-out: FGFR 1 pIC50 (converted)
KDR (h) = KDR (h) (Homo sapiens, UniProt P35968); experiment: KDR (VEGFR2) (enzymatic assay), TR-FRET; format: biochemical; details: read-out: VEGFR 2 (KDR) pIC50 (converted)
In short: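 3 μM ATP, 500 nM Btn-Flt3 substrate, 150 ng/ml kinase; HEPES pH 7.5 with MnCl2, DTT, vanadate, Triton; 1% DMSO. 120 min RT. Stop: EDTA + Eu-anti-P-Tyr + SA-XL-665, 60 min RT. Readout TR-FRET ex340/em620, 655 nm, RFU.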

FGFR2 (h) = FGFR2 (h) (Homo sapiens, UniProt P21802); experiment: FGFR2 (enzymatic assay), TR-FRET; format: biochemical; details: enzymatic assay; read-out: FGFR 2 pIC50 (converted)
Chain of FGFR2 (h) (P21802 22-821): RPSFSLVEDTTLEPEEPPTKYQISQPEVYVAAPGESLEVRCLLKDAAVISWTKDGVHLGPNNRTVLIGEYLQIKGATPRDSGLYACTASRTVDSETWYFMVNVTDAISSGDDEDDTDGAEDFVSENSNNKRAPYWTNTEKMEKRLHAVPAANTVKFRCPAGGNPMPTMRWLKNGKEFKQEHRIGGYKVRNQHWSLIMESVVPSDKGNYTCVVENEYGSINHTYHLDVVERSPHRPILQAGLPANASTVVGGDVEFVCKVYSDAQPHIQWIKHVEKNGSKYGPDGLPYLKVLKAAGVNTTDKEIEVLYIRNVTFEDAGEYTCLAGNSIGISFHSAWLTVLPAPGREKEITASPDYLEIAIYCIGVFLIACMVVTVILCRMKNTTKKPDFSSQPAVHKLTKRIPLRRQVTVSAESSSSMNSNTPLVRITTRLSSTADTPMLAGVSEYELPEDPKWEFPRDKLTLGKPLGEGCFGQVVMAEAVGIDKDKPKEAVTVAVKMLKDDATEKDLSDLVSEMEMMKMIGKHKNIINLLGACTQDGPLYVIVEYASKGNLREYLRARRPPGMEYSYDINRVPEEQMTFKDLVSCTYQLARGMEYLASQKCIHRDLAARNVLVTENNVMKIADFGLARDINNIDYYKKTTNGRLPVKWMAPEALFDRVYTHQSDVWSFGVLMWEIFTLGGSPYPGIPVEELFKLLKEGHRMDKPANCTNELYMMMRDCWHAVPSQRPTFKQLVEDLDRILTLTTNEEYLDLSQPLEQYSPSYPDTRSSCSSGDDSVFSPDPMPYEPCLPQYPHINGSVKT
In short: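 At low ATP (0.4 μM), enzyme activity of human FGFR2 (150 ng/ml) toward biotinylated Flt3 substrate (500 nM) was followed with test compound present. Reactions ran in 50 mM HEPES pH 7.5, 6 mM MnCl2, 1 mM DTT, 0.1 mM Na3VO4, 0.01% Triton-X-100, 1% DMSO.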

[1] = tested on: Ba/F3-FGFR3-transfected cells; experiment: Ba/F3-FGFR3 (plus IL3) cellular proliferation assay, counterscreen with 10 ng/ml murine IL3; format: cell-based; details: plus IL3 (10 ng/ml murine IL3, counterscreen); read-out: BAF3-FGFR3 (PLUS IL3) pIC50 (converted)
In short: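 Compound dilutions were dispensed first, then 20000 FGFR3-transfected Ba/F3 cells per well in serum-containing RPMI-1640 were added. After 24 h incubation at 37° C, Alamar Blue was applied for 4 h before relative fluorescence units were recorded. In the minus-IL3 format cells grow without cytokine; the other format contains 10 ng/ml murine IL3.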

[2] = molecular target: T1, Ba/F3-KDR-transfected cells (Homo sapiens, UniProt P35968); experiment: Ba/F3-KDR (minus IL3) cellular proliferation assay, Alamar Blue; format: cell-based
T1 construct: BAF3-KDR (MIN IL3) pIC50; other: minus IL3
In short: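 Read-out: resazurin-based Alamar Blue fluorescence (ex. 540, em. 590 nm) after 4 h. Before that, cells were incubated with compound for 24 h at 37° C. The counterscreen ran identically but with IL3 supplemented.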

[3] = tested on: Ba/F3-FGFR1-transfected cells; experiment: Ba/F3-FGFR1 (plus IL3) cellular proliferation assay, counterscreen with 10 ng/ml murine IL3; format: cell-based; details: plus IL3 (10 ng/ml murine IL3, counterscreen); read-out: BAF3-FGFR1 (PLUS IL3) pIC50 (converted)
In short: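 Proliferation read-out: resazurin-based Alamar Blue fluorescence (540/590 nm) after 4 h, following 24 h compound treatment of 20000 Ba/F3-FGFR1 cells per well in 10% FBS RPMI at 37° C. IL3 counterscreen used the same protocol plus 10 ng/ml murine IL3.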

FGFR4 (h) = FGFR4 (h) (Homo sapiens, UniProt P22455); experiment: FGFR4 (enzymatic assay), TR-FRET; format: biochemical; details: FGFR 4 pIC50, enzymatic assay
Chain of FGFR4 (h) (P22455 22-802): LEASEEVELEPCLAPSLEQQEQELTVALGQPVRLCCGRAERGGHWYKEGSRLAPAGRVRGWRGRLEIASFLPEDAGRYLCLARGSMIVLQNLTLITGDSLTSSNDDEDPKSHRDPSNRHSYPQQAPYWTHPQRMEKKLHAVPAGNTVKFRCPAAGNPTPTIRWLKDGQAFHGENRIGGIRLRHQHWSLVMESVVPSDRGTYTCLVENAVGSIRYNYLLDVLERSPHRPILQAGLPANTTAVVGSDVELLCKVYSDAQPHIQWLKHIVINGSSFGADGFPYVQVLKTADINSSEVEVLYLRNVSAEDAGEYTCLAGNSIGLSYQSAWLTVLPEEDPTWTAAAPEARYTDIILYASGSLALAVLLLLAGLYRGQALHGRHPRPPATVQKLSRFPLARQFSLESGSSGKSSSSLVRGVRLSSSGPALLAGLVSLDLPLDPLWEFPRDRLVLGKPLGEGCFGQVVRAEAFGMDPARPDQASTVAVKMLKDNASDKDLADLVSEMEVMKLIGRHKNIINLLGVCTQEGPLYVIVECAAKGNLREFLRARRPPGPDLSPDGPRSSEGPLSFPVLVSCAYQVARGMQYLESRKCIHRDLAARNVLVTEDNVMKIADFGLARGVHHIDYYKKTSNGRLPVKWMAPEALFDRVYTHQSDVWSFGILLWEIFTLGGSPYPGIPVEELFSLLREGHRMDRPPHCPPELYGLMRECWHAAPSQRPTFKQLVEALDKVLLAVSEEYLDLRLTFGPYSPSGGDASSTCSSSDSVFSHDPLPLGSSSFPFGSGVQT

FGFR3 (h) = FGFR3 (h) (Homo sapiens, UniProt P22607); experiment: FGFR3 (enzymatic assay), TR-FRET; format: biochemical; details: read-out: FGFR 3 pIC50 (converted)
Chain of FGFR3 (h) (P22607 23-806): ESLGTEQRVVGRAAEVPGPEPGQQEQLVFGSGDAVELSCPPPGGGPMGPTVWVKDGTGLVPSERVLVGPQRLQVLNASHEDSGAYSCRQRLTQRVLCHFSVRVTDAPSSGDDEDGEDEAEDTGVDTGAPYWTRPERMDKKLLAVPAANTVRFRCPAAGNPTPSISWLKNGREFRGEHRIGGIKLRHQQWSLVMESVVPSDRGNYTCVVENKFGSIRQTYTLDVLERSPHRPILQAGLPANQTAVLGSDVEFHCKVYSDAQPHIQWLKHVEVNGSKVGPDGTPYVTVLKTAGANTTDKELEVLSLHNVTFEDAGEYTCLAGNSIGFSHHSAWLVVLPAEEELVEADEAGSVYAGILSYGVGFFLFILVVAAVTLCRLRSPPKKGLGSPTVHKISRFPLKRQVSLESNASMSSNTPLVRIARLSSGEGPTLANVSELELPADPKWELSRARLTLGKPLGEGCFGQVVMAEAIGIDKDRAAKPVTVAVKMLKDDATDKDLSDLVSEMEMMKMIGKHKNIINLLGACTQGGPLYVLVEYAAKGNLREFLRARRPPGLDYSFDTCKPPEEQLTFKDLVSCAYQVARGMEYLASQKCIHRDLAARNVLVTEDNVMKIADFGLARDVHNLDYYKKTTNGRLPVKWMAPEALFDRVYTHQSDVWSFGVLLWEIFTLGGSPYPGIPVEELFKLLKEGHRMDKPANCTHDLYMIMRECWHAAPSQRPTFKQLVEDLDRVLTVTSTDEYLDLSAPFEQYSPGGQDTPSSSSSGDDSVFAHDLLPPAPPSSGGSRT
Text: Time-Resolved Fluorescence Resonance Energy Transfer (TR-FRET) signal (ex340 nm.

[4] = molecular target: Ba/F3-FGFR4-transfected cells (Homo sapiens, UniProt P22455); experiment: Ba/F3-FGFR4 cellular proliferation assay, Alamar Blue; format: cell-based
Chain of Ba/F3-FGFR4-transfected cells (P22455 whole entry, change not shown): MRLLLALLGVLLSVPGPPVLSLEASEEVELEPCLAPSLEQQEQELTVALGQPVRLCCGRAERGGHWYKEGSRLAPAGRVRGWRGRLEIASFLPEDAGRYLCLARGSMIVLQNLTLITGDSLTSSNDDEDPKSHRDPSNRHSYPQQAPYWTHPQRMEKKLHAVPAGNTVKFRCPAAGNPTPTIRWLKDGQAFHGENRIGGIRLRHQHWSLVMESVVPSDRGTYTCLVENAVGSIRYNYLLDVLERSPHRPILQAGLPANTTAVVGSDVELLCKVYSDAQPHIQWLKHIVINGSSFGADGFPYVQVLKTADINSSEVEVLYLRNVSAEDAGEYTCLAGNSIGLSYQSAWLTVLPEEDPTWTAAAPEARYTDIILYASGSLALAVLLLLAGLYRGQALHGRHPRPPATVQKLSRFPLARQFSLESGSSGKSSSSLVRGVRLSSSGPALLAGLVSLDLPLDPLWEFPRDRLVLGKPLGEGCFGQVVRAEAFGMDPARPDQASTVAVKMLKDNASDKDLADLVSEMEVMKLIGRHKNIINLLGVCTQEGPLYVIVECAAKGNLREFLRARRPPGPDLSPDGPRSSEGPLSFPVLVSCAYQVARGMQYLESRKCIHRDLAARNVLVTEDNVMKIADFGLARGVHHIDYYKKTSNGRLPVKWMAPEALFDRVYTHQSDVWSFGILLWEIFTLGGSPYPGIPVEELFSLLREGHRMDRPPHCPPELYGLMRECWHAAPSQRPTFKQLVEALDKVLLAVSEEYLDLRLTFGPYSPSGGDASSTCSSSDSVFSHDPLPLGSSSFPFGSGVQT
In short: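 Fluorescence read-out (ex. 540 nm, em. 590 nm) of resazurin-based Alamar Blue after 4 h, following 24 h compound exposure of Ba/F3-FGFR4-transfected cells (20000/well) at 37° C, 5% CO2.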

Chain of KDR (h) (P35968 20-1356): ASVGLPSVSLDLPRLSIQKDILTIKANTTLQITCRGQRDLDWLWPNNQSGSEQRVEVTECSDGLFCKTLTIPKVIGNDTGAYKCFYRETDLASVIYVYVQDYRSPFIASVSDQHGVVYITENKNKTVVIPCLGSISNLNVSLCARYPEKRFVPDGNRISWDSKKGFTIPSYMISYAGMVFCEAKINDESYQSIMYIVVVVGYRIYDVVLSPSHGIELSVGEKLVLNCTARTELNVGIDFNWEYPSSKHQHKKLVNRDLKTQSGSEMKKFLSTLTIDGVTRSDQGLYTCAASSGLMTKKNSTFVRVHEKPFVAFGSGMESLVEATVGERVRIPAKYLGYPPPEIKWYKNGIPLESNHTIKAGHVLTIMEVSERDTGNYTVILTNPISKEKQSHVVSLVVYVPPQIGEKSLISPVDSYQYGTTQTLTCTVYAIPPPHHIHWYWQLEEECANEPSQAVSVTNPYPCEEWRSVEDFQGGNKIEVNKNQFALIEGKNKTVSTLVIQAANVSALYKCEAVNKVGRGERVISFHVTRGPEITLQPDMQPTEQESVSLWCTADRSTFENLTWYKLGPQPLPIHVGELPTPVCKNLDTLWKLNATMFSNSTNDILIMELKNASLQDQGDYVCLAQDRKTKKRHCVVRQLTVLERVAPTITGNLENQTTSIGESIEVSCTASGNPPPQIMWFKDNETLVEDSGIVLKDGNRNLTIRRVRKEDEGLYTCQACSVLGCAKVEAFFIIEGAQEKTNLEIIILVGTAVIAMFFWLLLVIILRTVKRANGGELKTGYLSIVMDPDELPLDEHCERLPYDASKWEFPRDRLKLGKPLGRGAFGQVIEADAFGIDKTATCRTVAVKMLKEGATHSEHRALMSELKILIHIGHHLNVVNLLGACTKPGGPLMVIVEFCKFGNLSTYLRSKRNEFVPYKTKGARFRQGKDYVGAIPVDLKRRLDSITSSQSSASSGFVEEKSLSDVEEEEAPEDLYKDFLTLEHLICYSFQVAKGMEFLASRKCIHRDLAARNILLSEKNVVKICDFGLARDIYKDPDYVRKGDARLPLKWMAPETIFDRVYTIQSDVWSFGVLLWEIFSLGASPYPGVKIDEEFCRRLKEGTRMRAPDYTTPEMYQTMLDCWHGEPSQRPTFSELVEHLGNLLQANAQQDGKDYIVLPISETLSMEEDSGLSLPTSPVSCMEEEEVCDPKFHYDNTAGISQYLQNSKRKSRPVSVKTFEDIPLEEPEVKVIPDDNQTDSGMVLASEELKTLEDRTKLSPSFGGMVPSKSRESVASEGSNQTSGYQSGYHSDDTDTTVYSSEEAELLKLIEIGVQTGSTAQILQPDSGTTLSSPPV

| Compound | IC50 (FGFR1 (h)) [nM] | IC50 (KDR (h)) [nM] | IC50 (FGFR2 (h)) [nM] | IC50 [1] [nM] | BAF3-KDR (MIN IL3) pIC50 [2] | IC50 [3] [nM] | IC50 (FGFR4 (h)) [nM] | IC50 (FGFR3 (h)) [nM] | BAF3-FGFR4 pIC50 [4] |
| --- | --- | --- | --- | --- | --- | --- | --- | --- | --- |
| COc1cc(OC)c(F)c(N(Cc2c[nH]nn2)c2ccc3ncc(-c4cnn(C)c4)nc3n2)c1 [Compound 258] | 0.55 | 12.3 | 1.45 | > 10000 | 6.02 | > 10000 | 1.32 | 0.676 | 7.03 |
| COc1cc(OC)c(F)c(N(Cc2ncc[nH]2)c2ccc3ncc(N4C[C@@H](C)N[C@@H](C)C4)nc3n2)c1 [Compound 259] | 2.09 | 309 | 2.88 | > 10000 | 5.13 | > 10000 | 28.2 | 4.57 | 6.19 |
| CNC(=O)c1cc(F)cc(N(Cc2ncc[nH]2)c2ccc3ncc(-c4cnn(C)c4)nc3n2)c1 [Compound 261] | 1.48 | 10.2 | ~2.82 | > 10000 | 6.01 | > 10000 | 6.03 | 1.91 | 6.77 |
| COc1cc(OC)c(F)c(N(CC(=O)N2CCNCC2)c2ccc3ncc(-c4cnn(C)c4)nc3n2)c1 [Compound 262] | 7.24 | 240 | 7.24 | > 10000 | 5.06 | > 10000 | 55 | 17.4 | 5.63 |
| COc1cc(OC)c(F)c(N(Cc2ncc[nH]2)c2ccc3ncc(-c4cnn(CCS(C)(=O)=O)c4)nc3n2)c1 [Compound 264] | 0.55 | 9.33 | 1.86 | > 10000 | 5.58 | > 10000 | 1.38 | 1.41 | 7.18 |
| COc1cc(OC)c(F)c(N(CCS(C)(=O)=O)c2ccc3ncc(-c4cnn(CCS(C)(=O)=O)c4)nc3n2)c1 [Compound 266] | 1.45 | 34.7 | 2.24 | > 10000 | <5 | > 10000 | 4.27 | 1.7 | 5.78 |
| COc1cc(OC)c(F)c(N(CC2CC(O)C(=O)N2)c2ccc3ncc(-c4cnn(C)c4)nc3n2)c1 (stereo not drawn) [Compound 269] | 1.62 | 74.1 | 3.24 | > 10000 | 5.12 | > 10000 | 3.09 | 2.14 | 6.29 |
| COc1cc(/N=c2\ccc3ncc(-c4cnn(C)c4)nc3n2CC2CC(O)C(=O)N2)c(F)c(OC)c1 (stereo not drawn) [Compound 270] | 0.776 | 6.46 | 2.09 | > 10000 | 5.56 | > 10000 | 2.29 | 1.1 | 6.40 |
| COc1cc(OC)cc(N(CC2CC(O)C(=O)N2)c2ccc3ncc(-c4cnn(C)c4)nc3n2)c1 (stereo not drawn) [Compound 271] | 4.57 | 174 | 3.98 | > 10000 | <5 | > 10000 | 7.76 | 2.45 | 5.80 |
| COc1cc(/N=c2\ccc3ncc(-c4cnn(C)c4)nc3n2CC2CC(O)C(=O)N2)cc(OC)c1 (stereo not drawn) [Compound 272] | 0.977 | 10 | 2.57 | > 10000 | 5.68 | > 10000 | 5.25 | 1.45 | 5.97 |
| COc1cc(OC)c(C)c(N(Cc2ncc[nH]2)c2ccc3ncc(-c4cnn(C)c4)nc3n2)c1 [Compound 273] | 1.15 | 20.4 | 3.8 | > 10000 | 6.44 | > 10000 | 2.82 | 3.16 | 7.60 |
| COc1cc(OC)cc(N(CCS(C)(=O)=O)c2ccc3ncc(-c4cnn(CCS(C)(=O)=O)c4)nc3n2)c1 [Compound 275] | 5.89 | 141 | 3.47 | > 10000 | <5 | > 10000 | 12 | 3.39 | 5.13 |
| COc1cc(OC)cc(N(CC(C)(C)O)c2ccc3ncc(-c4cnn(C)c4)nc3n2)c1 [Compound 276] | 14.5 | 141 | 9.12 | > 10000 | 5.02 | > 10000 | 69.2 | 8.32 | 5.82 |
| COc1cc(/N=c2\ccc3ncc(-c4cnn(C)c4)nc3n2CC(C)(C)O)cc(OC)c1 [Compound 277] | 0.871 | 15.1 | 2.09 | > 10000 | 5.49 | > 10000 | 4.68 | 1.07 | 6.37 |
| COc1cc(OC)c(F)c(N(CC(C)(C)O)c2ccc3ncc(-c4cnn(C)c4)nc3n2)c1F [Compound 278] | 1.62 | 15.8 | 4.17 | > 10000 | 5.92 | > 10000 | 4.9 | 2.95 | 7.11 |
| COc1cc(OC)cc(N(c2ccc3ncc(-c4cnn(C)c4)nc3n2)C(C)c2ncc[nH]2)c1 (stereo not drawn) [Compound 280] | 0.851 | 31.6 | 2.04 | > 10000 | 6.03 | > 10000 | 2.34 | 1.86 | 7.97 |
